Assay results reported in patent US20140171319A1, “Aqueous Composition Comprising a Pesticide and a Base Selected from an Alkali Salt of Hydrogencarbonate” (BASF SE, priority 2011, published 2014).

Assays:
pH of tank mix = format: physicochemical
Procedure: The liquid aqueous composition may have a pH value of at least pH 4.0, preferably of at least 6.0, better of at least 7.0, more preferably of at least 7.5, especially preferred of at least 8.0 and in particular of at least 8.5. The liquid aqueous composition may have a pH of up to 13.0, preferably of up to 11.0 and in particular of up to 9.0. The pH value is usually determined at 20° C.

[1] = Volatility: loss of dicamba from aqueous tank mix on petri dish; format: physicochemical; conditions: 70° C., 24 h, atmospheric pressure
Procedure: The volatility was determined by analyzing the loss of material by HLPL at 70° C. after 24 h at atmospheric pressure. A sample of the aqueous tank mix (300 l/ha) was placed on the petri dish with a defined area (corresponding to a desired field application rate, such as 500 g/ha pesticide).
The application rate was 500 g/ha dicamba (free acid), 1000 g/ha potassium glyphosate, 300 g/ha Genamin® T050 (“Ad2”, 300 g/ha Preference® (“Ad3”) and optionally 250, 500 or 1000 g/ha K2CO3. Deionised water (hardness <1° dH) was used to prepare the samples. Dicamba BAPMA refers to the bis(3-aminopropyl)methylamine salt of dicamba.

Structure (SMILES) | pH of tank mix (pH of tank mix; Example 6 tank mix, application rate 500 g/ha dicamba, 300 l/ha) | Loss of dicamba, Loss (wt %) ([1]; application rate 500 g/ha dicamba, tank mix 300 l/ha) | pH of tank mix (pH of tank mix; Example 7 tank mix, 500 g/ha dicamba (free acid), deionised water (hardness <1° dH)) | Loss of dicamba, Loss (wt %) ([1]; 500 g/ha dicamba (free acid), 1000 g/ha potassium glyphosate where Gly-K, deionised water)
COc1c(Cl)ccc(Cl)c1C(=O)O [Dicamba free acid, dicamba] | 3.0 | 80 |  | 
CN(CCCN)CCCN.COc1c(Cl)ccc(Cl)c1C(=O)O [Dicamba BAPMA, bis(3-aminopropyl)methylamine salt of dicamba] |  |  | 6.3 | <1
